Data taken from the supplement of paper PMC12463676, “Small-molecule dissolution of stress granules by redox modulation benefits ALS models” (Nature Chemical Biology, 2025).

Experiments:
[1] = compound: NC(=O)CCCCC1CCSS1 [lipoamide]; assay: thermal stability z-score vs DMSO; higher = more thermally stabilized by treatment; details: HeLa, lipoamide concentration 100 µM
Experimental: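 Cellular thermal proteome profiling in HeLa cells. Cells were treated with 100 µM lipoamide for 1 h, with or without 1 mM arsenate for a further 1 h, then heated to ten temperatures (37-66.3 °C), and soluble protein was quantified by TMT mass spectrometry relative to 0.1% DMSO controls. The thermal stability score (sum of log2 fold changes minus the abundance score) was transformed to a z-score; mean of n = 3 experiments.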

[2] = compound: O=[As]([O-])(O)O.[K+] [potassium arsenate]; assay: as above; details: HeLa; arsenate concentration 1 mM
Experimental: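 Cellular thermal proteome profiling in HeLa cells treated with 1 mM arsenate for 1 h (DMSO pretreatment), heated to ten temperatures (37-66.3 °C). Soluble protein was quantified by TMT mass spectrometry relative to DMSO controls; the thermal stability score was transformed to a z-score; mean of n = 3 experiments.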

[3] = arsenate co-treatment: 1 mM arsenate 1 h
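Also: each temperature applied for 3 min, abundance score taken as mean log2 fold change at the two lowest temperatures, z-score obtained by mean subtraction and division by SD.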

Sequence of UniProt P25208 (P25208 whole entry): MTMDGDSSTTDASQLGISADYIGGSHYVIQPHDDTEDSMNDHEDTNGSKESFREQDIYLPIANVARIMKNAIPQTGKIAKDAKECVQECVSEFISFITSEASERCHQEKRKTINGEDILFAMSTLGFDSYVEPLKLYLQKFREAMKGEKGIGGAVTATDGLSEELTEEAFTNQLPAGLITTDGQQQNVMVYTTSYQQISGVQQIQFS
Sequence of UniProt P08651 (P08651 whole entry): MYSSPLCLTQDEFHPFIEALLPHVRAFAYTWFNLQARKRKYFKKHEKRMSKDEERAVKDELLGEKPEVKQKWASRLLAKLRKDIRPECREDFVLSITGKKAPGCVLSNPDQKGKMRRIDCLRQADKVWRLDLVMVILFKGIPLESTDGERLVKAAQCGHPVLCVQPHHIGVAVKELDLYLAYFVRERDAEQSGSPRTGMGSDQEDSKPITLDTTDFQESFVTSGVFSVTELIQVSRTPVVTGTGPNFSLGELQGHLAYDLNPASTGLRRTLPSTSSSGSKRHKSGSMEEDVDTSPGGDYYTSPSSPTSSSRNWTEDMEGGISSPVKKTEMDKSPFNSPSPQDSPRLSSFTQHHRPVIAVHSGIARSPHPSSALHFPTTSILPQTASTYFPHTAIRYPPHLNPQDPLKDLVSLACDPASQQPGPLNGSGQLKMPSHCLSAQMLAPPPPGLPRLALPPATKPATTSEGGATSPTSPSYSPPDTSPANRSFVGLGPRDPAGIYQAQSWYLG
Sequence of UniProt Q6ZNB6 (Q6ZNB6 whole entry): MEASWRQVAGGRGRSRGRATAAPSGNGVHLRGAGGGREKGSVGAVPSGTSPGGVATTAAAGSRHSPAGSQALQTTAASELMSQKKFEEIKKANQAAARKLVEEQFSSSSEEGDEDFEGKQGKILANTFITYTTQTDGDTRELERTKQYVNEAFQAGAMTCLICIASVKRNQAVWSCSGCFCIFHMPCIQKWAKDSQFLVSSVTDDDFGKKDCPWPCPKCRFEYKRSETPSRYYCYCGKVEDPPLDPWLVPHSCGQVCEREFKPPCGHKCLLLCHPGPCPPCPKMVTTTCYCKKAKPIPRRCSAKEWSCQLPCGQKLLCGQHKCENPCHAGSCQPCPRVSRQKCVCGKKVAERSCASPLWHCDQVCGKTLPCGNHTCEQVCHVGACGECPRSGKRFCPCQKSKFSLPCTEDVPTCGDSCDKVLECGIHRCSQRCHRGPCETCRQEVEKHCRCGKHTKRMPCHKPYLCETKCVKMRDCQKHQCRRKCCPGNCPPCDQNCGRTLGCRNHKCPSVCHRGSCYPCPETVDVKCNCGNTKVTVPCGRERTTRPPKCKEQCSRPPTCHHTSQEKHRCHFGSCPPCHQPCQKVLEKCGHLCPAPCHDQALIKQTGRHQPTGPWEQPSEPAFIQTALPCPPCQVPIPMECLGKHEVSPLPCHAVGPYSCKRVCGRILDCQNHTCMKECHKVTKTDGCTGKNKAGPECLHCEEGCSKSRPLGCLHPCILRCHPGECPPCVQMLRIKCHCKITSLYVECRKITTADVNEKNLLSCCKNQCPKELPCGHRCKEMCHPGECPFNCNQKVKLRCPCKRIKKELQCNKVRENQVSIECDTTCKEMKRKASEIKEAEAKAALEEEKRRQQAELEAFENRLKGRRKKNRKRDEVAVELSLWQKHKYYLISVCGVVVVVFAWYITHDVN
Sequence of UniProt P35240 (P35240 whole entry): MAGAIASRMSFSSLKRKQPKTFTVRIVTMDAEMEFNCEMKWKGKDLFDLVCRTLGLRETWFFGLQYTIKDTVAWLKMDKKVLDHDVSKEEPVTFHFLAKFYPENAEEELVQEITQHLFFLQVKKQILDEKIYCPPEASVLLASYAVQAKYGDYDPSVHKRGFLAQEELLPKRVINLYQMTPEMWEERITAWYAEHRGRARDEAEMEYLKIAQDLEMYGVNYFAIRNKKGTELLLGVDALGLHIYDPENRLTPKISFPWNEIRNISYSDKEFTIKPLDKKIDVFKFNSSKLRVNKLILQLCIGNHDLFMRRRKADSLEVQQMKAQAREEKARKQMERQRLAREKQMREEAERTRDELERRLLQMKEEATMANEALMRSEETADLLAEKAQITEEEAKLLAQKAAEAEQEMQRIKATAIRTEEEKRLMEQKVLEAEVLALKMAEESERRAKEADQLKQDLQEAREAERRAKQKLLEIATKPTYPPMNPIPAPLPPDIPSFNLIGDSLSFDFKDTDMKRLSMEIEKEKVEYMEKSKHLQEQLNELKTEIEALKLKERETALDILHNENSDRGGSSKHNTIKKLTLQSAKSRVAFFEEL
Sequence of UniProt P21359 (P21359 whole entry): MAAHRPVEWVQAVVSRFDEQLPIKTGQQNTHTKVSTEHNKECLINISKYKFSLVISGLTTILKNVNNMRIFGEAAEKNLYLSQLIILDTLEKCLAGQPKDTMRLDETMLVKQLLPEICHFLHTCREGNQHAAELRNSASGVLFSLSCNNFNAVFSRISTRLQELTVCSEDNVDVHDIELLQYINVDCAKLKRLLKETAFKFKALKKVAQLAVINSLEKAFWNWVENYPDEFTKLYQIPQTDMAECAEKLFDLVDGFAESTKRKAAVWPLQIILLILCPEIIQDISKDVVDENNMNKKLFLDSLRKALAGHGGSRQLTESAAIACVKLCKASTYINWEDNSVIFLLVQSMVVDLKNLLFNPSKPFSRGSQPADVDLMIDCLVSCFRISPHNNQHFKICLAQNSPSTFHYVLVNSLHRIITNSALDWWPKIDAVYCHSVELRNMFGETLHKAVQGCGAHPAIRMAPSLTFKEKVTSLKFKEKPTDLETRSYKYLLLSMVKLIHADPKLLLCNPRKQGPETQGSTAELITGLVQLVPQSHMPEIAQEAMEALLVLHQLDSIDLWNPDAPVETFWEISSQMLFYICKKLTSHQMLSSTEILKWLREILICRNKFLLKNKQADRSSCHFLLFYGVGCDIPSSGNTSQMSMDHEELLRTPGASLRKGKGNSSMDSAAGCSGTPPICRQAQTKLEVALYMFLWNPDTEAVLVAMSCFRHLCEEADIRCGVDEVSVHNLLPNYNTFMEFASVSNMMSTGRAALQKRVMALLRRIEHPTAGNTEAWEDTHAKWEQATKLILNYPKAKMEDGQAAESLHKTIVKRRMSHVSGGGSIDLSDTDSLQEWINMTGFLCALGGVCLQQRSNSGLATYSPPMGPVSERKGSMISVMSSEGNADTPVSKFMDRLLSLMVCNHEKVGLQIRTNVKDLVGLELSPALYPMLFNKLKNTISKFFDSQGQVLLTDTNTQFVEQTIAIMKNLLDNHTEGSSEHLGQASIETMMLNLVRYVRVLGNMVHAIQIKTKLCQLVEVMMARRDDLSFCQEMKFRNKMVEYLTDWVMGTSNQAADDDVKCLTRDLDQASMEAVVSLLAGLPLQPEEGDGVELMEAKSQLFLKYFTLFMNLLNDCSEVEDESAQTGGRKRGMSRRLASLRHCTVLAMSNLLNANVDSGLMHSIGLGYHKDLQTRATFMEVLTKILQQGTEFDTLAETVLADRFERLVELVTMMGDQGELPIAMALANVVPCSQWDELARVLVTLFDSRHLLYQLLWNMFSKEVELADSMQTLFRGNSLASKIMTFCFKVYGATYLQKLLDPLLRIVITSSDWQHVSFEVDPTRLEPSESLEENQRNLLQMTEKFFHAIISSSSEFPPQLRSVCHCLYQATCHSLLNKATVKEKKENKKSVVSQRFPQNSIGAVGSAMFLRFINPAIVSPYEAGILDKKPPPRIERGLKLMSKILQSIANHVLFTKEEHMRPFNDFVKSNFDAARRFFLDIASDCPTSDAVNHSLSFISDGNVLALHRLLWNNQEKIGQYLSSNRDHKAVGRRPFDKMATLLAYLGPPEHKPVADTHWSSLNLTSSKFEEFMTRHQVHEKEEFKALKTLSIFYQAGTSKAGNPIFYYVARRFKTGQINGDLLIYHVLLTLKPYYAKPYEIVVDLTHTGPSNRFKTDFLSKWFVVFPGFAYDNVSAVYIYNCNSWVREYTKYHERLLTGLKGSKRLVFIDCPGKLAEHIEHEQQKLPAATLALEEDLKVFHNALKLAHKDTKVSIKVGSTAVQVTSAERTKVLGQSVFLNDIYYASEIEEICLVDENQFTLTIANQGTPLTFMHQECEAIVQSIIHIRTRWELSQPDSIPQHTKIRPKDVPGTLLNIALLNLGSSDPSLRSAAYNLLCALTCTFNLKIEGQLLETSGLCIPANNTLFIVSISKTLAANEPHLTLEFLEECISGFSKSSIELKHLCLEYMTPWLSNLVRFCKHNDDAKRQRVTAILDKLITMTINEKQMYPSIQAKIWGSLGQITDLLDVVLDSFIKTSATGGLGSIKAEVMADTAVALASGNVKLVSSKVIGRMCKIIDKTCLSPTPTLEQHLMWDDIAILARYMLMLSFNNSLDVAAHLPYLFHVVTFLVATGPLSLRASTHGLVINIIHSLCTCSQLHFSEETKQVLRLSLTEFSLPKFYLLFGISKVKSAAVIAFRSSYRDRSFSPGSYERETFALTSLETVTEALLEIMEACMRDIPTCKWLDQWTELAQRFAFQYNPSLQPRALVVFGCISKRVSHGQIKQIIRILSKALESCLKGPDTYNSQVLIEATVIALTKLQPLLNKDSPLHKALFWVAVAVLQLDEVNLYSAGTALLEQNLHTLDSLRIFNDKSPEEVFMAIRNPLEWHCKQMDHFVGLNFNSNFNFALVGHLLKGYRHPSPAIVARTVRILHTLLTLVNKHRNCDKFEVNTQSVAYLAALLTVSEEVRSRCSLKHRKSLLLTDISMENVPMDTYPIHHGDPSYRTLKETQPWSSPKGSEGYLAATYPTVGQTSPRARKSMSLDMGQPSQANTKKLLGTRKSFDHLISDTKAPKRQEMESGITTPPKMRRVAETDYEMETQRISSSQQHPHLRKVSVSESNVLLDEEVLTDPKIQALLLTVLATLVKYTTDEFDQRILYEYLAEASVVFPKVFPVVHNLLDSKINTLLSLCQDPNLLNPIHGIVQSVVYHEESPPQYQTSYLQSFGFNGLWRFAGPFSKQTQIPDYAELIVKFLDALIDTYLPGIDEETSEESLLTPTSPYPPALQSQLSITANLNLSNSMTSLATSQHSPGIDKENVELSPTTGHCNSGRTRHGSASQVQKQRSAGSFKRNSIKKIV

Row | Target | thermal stability z-score [1, 3] | thermal stability z-score ([1]; arsenate co-treatment: none) | thermal stability z-score [2]
1 | NEURL4 (UniProt Q96JN8) | -0.125 | 0.0814 | 0.00875
2 | NEXN (UniProt Q0ZGT2) | 0.00122 | 0.037 | 0.0665
3 | NF1 (UniProt P21359) | -0.487 | -0.235 | -0.72
4 | NF2 (UniProt P35240) | 0.402 | 0.235 | -0.309
5 | NFAT5 (UniProt O94916) | 0.48 | 0.0594 | 1.37
6 | NFATC2IP (UniProt Q8NCF5) | -0.124 | -0.127 | -0.254
7 | NFIA (UniProt Q12857) | -1.05 | -1.1 | -0.647
8 | NFIB (UniProt O00712) | -1.17 | -0.437 | -0.0229
9 | NFIC (UniProt P08651) | 0.26 | 0.173 | -0.494
10 | NFKB1 (UniProt P19838) | 0.0975 | 0.14 | -0.274
11 | NFKB2 (UniProt Q00653) | -0.498 | 0.158 | 0.523
12 | NFKBIB (UniProt Q15653) | -0.344 | -0.271 | 0.948
13 | NFS1 (UniProt Q9Y697) | -0.356 | -0.438 | -1.15
14 | NFU1 (UniProt Q9UMS0) | 0.559 | 0.402 | 0.227
15 | NFX1 (UniProt Q12986) | -1.53 | -1.5 | -3.38
16 | NFXL1 (UniProt Q6ZNB6) | -0.724 | -0.558 | -0.813
17 | NFYA (UniProt P23511) | 0.401 | -0.0763 | -0.528
18 | NFYB (UniProt P25208) | 0.446 | 0.825 | -0.691
